In publication PMC9232501, “Results of the phase I CCTG IND.231 trial of CX-5461 in patients with advanced solid tumors enriched for DNA-repair deficiencies” (Nature Communications, 2022):
Like-named read-outs stand apart in the source and are kept apart here.

Assay: Plasma pharmacokinetics of CX-5461 (HPLC-MS/MS, non-compartmental)
Type: in vivo, human
Details: plasma; for concentration at 48 h / concentration at 72 h / concentration at 0.5 h / concentration at 1 h / concentration at 4 h / concentration at 6 h / concentration at 0 h / concentration at 2 h / concentration at 24 h: individual patients, read-out: Day 1 CX-5461 plasma concentration
Protocol: PK was assessed on all patients in the escalation phase. Venous blood samples were collected on treatment days 1, 8, and 15 (where applicable), and plasma CX-5461 was analyzed with HPLC-MS/MS (schedule details in Supplementary Table 3). PK parameters were calculated with non-compartmental methods. […] The protocol was amended to allow submission of a ctDNA sample and in a further amendment, a mandatory skin biopsy (pre-treatment and cycle 1 day 15) to study phototoxic effects. Fresh tumor biopsies were optional.
Supplementary Table 3. Schedule for collection of CX5461 pharmacokinetics
During infusion at 30 minutes
Immediately post infusion then:
C1D1 30 minutes post infusion
C1D2 24 hours post infusion
C1D3 48 hours post infusion
C1D4 72 hours post infusion
Immediately post infusion then
C1D15 30 minutes post infusion
C1D16 24 hours post infusion
In addition to the specific time points listed above, additional samples were to be collected from […]

[1] = human, intravenous, 50 mg/m2, 50 mg/m2
[2] = human, intravenous, 100 mg/m2, 100 mg/m2
[3] = human, intravenous, 150 mg/m2, 150 mg/m2
[4] = human, intravenous, 200 mg/m2, 200 mg/m2
[5] = human, intravenous, 250 mg/m2, 250 mg/m2
[6] = human, intravenous, 325 mg/m2, 325 mg/m2
[7] = human, intravenous, 325 mg/m2, B: 325 mg/m2
[8] = human, intravenous, 475 mg/m2, 475 mg/m2
[9] = human, intravenous, 475 mg/m2, B: 475 mg/m2
[10] = human, intravenous, 650 mg/m2, 650 mg/m2

Structure (SMILES): Cc1cnc(CNC(=O)c2c(=O)c3ccc(N4CCCN(C)CC4)nc3n3c2sc2ccccc23)cn1 [CX-5461]
- concentration at 48 h [1]: 24.8 ng/mL
- concentration at 72 h [1]: 13.3 ng/mL
- AUC (human, intravenous, 50 mg/m2, Dose level 50 (mg/m2), one patient per datapoint, read-out: Day 1 AUC): 3240 ng·h/mL
- concentration at 0.5 h [2]: 141 ng/mL
- concentration at 1 h [2]: 115 ng/mL
- concentration at 4 h [2]: 103 ng/mL
- concentration at 6 h [2]: 83.2 ng/mL
- concentration at 48 h [2]: 44.7 ng/mL
- concentration at 72 h [2]: 20 ng/mL
- AUC (human, intravenous, 100 mg/m2, Dose level 100 (mg/m2), one patient per datapoint, read-out: Day 1 AUC): 5240 ng·h/mL
- Cmax (human, intravenous, 100 mg/m2, Dose level 100 (mg/m2), one patient per datapoint, read-out: Day 8 or 15 Cmax): 1140 ng/mL
- concentration at 0 h [3]: 465 ng/mL
- concentration at 0.5 h [3]: 320 ng/mL
- concentration at 2 h [3]: 206 ng/mL
- concentration at 4 h [3]: 200 ng/mL
- concentration at 6 h [3]: 179 ng/mL
- Cmax (human, intravenous, 150 mg/m2, Dose level 150 (mg/m2), one patient per datapoint, read-out: Day 1 Cmax): 465 ng/mL
- AUC (human, intravenous, 150 mg/m2, Dose level 150 (mg/m2), one patient per datapoint, read-out: Day 8 or 15 AUC): 19600 ng·h/mL
- concentration at 24 h [4]: 72.8 ng/mL
- concentration at 72 h [4]: 31.4 ng/mL
- concentration at 0 h [5]: 867 ng/mL
- concentration at 0.5 h [5]: 420 ng/mL
- concentration at 1 h [5]: 423 ng/mL
- concentration at 2 h [5]: 369 ng/mL
- concentration at 4 h [5]: 233 ng/mL
- concentration at 24 h [5]: 197 ng/mL
- concentration at 48 h [5]: 106 ng/mL
- concentration at 72 h [5]: 85.4 ng/mL
- AUC (human, intravenous, 250 mg/m2, Dose level 250 (mg/m2), one patient per datapoint, read-out: Day 1 AUC): 12400 ng·h/mL
- AUC (human, intravenous, 250 mg/m2, Dose level 250 (mg/m2), one patient per datapoint, read-out: Day 8 or 15 AUC): 19000 ng·h/mL
- concentration at 0 h [6]: 1310 ng/mL
- concentration at 0.5 h [6]: 446 ng/mL
- concentration at 1 h [6]: 400 ng/mL
- concentration at 2 h [6]: 395 ng/mL
- concentration at 4 h [6]: 244 ng/mL
- concentration at 6 h [6]: 291 ng/mL
- concentration at 24 h [6]: 232 ng/mL
- concentration at 48 h [6]: 138 ng/mL
- concentration at 72 h [6]: 110 ng/mL
- concentration at 1 h [7]: 297 ng/mL
- concentration at 2 h [7]: 308 ng/mL
- concentration at 4 h [7]: 252 ng/mL
- concentration at 6 h [7]: 271 ng/mL
- concentration at 48 h [7]: 203 ng/mL
- concentration at 72 h [7]: 107 ng/mL
- AUC (human, intravenous, 325 mg/m2, Dose level 325 (mg/m2), one patient per datapoint, read-out: Day 1 AUC): 15000 ng·h/mL
- Cmax (human, intravenous, 325 mg/m2, Dose level 325 (mg/m2), one patient per datapoint, read-out: Day 1 Cmax): 1310 ng/mL
- AUC (human, intravenous, 325 mg/m2, Dose level 325 (mg/m2), one patient per datapoint, read-out: Day 8 or 15 AUC): 24600 ng·h/mL
- Cmax (human, intravenous, 325 mg/m2, Dose level 325 (mg/m2), one patient per datapoint, read-out: Day 8 or 15 Cmax): 1440 ng/mL
- AUC (human, intravenous, 325 mg/m2, Dose level B: 325 (mg/m2), one patient per datapoint, read-out: Day 1 AUC): 25200 ng·h/mL
- Cmax (human, intravenous, 325 mg/m2, Dose level B: 325 (mg/m2), one patient per datapoint, read-out: Day 1 Cmax): 822 ng/mL
- concentration at 0 h [8]: 1540 ng/mL
- concentration at 0.5 h [8]: 475 ng/mL
- concentration at 1 h [8]: 480 ng/mL
- concentration at 2 h [8]: 445 ng/mL
- concentration at 4 h [8]: 293 ng/mL
- concentration at 6 h [8]: 274 ng/mL
- concentration at 24 h [8]: 242 ng/mL
- concentration at 48 h [8]: 140 ng/mL
- concentration at 72 h [8]: 104 ng/mL
- concentration at 0.5 h [9]: 890 ng/mL
- concentration at 1 h [9]: 698 ng/mL
- concentration at 4 h [9]: 424 ng/mL
- concentration at 48 h [9]: 336 ng/mL
- concentration at 72 h [9]: 219 ng/mL
- AUC (human, intravenous, 475 mg/m2, Dose level 475 (mg/m2), one patient per datapoint, read-out: Day 1 AUC): 15800 ng·h/mL
- Cmax (human, intravenous, 475 mg/m2, Dose level 475 (mg/m2), one patient per datapoint, read-out: Day 1 Cmax): 1850 ng/mL
- Cmax (human, intravenous, 475 mg/m2, Dose level 475 (mg/m2), one patient per datapoint, read-out: Day 8 or 15 Cmax): 1680 ng/mL
- Cmax (human, intravenous, 475 mg/m2, RP2D 475 mg/m^2 d1,8,15, read-out: average day 1 Cmax): 1740 ± 801 ng/mL
- Cmax (human, intravenous, 475 mg/m2, RP2D 475 mg/m^2 d1,8,15, read-out: day 15 Cmax): 2870 ± 2310 ng/mL
- half-life (human, intravenous, 475 mg/m2, RP2D 475 mg/m^2 d1,8,15, read-out: elimination half-life (t1/2), day 1 (converted)): 61.5 ± 15.5 h
- half-life (human, intravenous, 475 mg/m2, RP2D 475 mg/m^2 d1,8,15, read-out: elimination half-life (t1/2), day 15 (converted)): 59 ± 11.2 h
- concentration at 14 days (human, intravenous, 475 mg/m^2, 14 days after the prior dose, read-out: mean trough plasma level prior to cycle 2 day 1): 49.1 ± 34.5 ng/mL
- concentration at 0 h [10]: 953 ng/mL
- concentration at 0.5 h [10]: 1040 ng/mL
- concentration at 2 h [10]: 712 ng/mL
- concentration at 4 h [10]: 495 ng/mL
- concentration at 48 h [10]: 222 ng/mL
- AUC (human, intravenous, 650 mg/m2, Dose level 650 (mg/m2), one patient per datapoint, read-out: Day 1 AUC): 26800 ng·h/mL
- elimination: eliminated slowly
